What was measured:
[1] = Stability in aqueous solution / PBS (mass spectroscopy); type: physicochemical; details: for Chemical stability in aqueous solution: after a few days in aqueous solution; for Stability in PBS by mass spectroscopy: dissolved in PBS, within 72 hours
[2] = system: GM130 (cis-Golgi marker) in Hela cells; assay: Immunostaining and confocal microscopy of Hela cells; type: cell-based, human; details: for Reversibility of GM130 dispersion: 50 μM 30 min, then 30 min in fresh medium; for Dispersion of GM130 marker: 50 μM, 30 min
Protocol: (§1) FIG. 1. Bragsin2 affects Arf pathways in cells • a. Chemical structures of Bragsin1 and Bragsin2 and derivatives used in this study. Chemical synthesis and structural characterization of the compounds are described in example 6. • b. Bragsin2 disperses the TGN46 and GM130 markers. HeLa cells were treated with either DMSO (0.25%) or Bragsin2 (50 μM) for 30 min, immunostained for TGN46, GM130 or EEA1 (green channel) and analysed by confocal microscopy. Dispersion of GM130 and TGN46 by Bragsin2 is reversible. Hela cells were treated as in FIG. 1a and were incubated for an additional 30 min in fresh medium (wash panel) prior to immunostaining and confocal microscopy analysis. Expression of Arf-mCherry constructs carrying an activating mutation rescues the effect of Bragsin2. Hela cells were transfected with constitutively active Q/L mutants of Arf-mCherry. Note the difference between non-transfected cells (white asterisk) and transfected cells. Scale bars, 10 μm.
(§2) Hela cells were grown in Dulbecco's modified Eagle's medium supplemented with Glutamax™ and 10% fetal bovine serum (Invitrogen). For immunofluorescence studies, cells were grown on Labtek glass slides (Nunc) and transfected for 18 to 24 h using Lipofectamine 2000 (Invitrogen), according to the supplier's instructions. When specified, cells were treated with the indicated concentration of small molecule or corresponding volume of vehicle (DMSO) in growth medium for 30 min at 37° C.
(§3) Immunostaining procedure was as described in (Viaud, J. et al. Structure-based discovery of an inhibitor of Arf activation by Sec7 domains through targeting of protein-protein complexes. Proc Natl Acad Sci USA 104, 10370-5 (2007)) except that secondary antibody incubation was performed for 1h using Alexa 488-conjugated goat anti-mouse (1:600) or donkey anti-sheep (1:500) IgG and Alexa 647-conjugated phalloidin (1:100). Anti-GM130 was used at dilution 1:200. Images were bidirectionally recorded using an inverted Leica TCS SP8 laser-scanning confocal microscope with a 100× (N. A. 1.40) oil objective (HCX APO, Leica). Fluorochromes were detected sequentially using excitation laser lines at 488 nm (Alexa 488), 594 nm (mCherry) and 633 nm (Alexa 647). Stacks were generated using a z-step of 0.5 μm and processed using Fiji/ImageJ (Schindelin, J. et al. Fiji: an open-source platform for biological-image analysis. Nat Methods 9, 676-82 (2012)). Images are representative of at least two independent experiments.

[3] = system: TGN46 (trans-Golgi network marker) in Hela cells; assay: as above; type: cell-based, human; details: for Reversibility of TGN46 dispersion / Dispersion of TGN46 marker: Hela cells; for Reversibility of TGN46 dispersion: 50 μM 30 min, then 30 min in fresh medium; for Dispersion of TGN46 marker: 50 μM, 30 min; for Rescue of compound-induced TGN46 dispersion by constitutively active Arf1, Arf5, Arf6 Q/L-mCherry: transfected Hela cells
Protocol: as §1, §2, §3

Row | Structure (SMILES) | Chemical stability in aqueous solution [1] | Stability in PBS by mass spectroscopy [1] | Reversibility of GM130 dispersion [2] | Dispersion of GM130 marker [2] | Reversibility of TGN46 dispersion [3] | Dispersion of TGN46 marker [3] | Rescue of compound-induced TGN46 dispersion by constitutively active Arf1, Arf5, Arf6 Q/L-mCherry [3]
1 | Cc1ccc2oc(C(F)(F)F)cc(=O)c2c1[N+](=O)[O-] [Bragsin1, 6-methyl-5-nitro-2-(trifluoromethyl)-4H-chromen-4-one] | chemically unstable | slowly decomposed | reversible | disperses | reversible | disperses | rescues
2 | COc1ccc2oc(C(F)(F)F)cc(=O)c2c1[N+](=O)[O-] [Bragsin2, 6-methoxy-5-nitro-2-(trifluoromethyl)-4H-chromen-4-one] | resistant to hydration and stable | remained stable | reversible | disperses | reversible | disperses | rescues

Source: patent US12152012B2, “BRAG2 inhibitors and applications thereof” (CENTRE NATIONAL DE LA RECHERCHE SCIENTIFIQUE, priority 2018, dated 2024)
